One test has as its target IDH1 R132C (Homo sapiens, UniProt O75874, R132C). Put plainly: IDH1 R132C enzymatic assay (NADPH depletion coupled to diaphorase/resazurin). The test is classed as biochemical. The method, then: (§1) Assays were conducted in a 1536-well black solid-bottom plate with a final assay volume of 9 μL.
For IDH1 R132C, 3 μL of enzyme (0.00032 mg/mL IDH1 […], 10% glycerol, 50 mM potassium phosphate pH 6.5, 5 mM MgCl2, 0.03% BSA) were added to the plate, followed by the addition of 23 nL of test compound in DMSO. The plate was lidded and incubated at room temperature for 30 minutes at which time 3 μL of substrate were added (0.012 mM NADPH, 0.6 mM α-KG, 10% glycerol, 50 mM potassium phosphate pH 6.5, 5 mM MgCl2, 0.03% BSA). […]
(Alamar Blue is a resazurin reagent that responds to reducing activity.)

A further test addresses IDH1 R132H (Homo sapiens, UniProt O75874, R132H). Put plainly: IDH1 R132H enzymatic assay (NADPH depletion coupled to diaphorase/resazurin). The test is classed as biochemical. The method, then:
as §1
Specifically, for IDH1 R132H, 3 μL of enzyme (4 mM β-ME, 0.0005 mg/mL IDH1 R132H, 150 mM NaCl, 20 mM Tris pH 7.5, 10 mM MgCl2, 0.05% BSA) were added to the plate, followed by the addition of 23 nL of test compound in DMSO. The plate was lidded and incubated at room temperature for 30 minutes at which time 3 μL of substrate were added (0.016 mM NADPH, 2 mM α-KG, 150 mM NaCl, 20 mM Tris pH 7.5, 10 mM MgCl2, 0.05% BSA). This reaction was incubated at room-temperature for 60 minutes at which time the detection mix was added (0.06 mg/mL diaphorase, 0.036 mM resazurin, 150 mM NaCl, 20 mM Tris pH 7.5, 10 mM MgCl2, 0.05% BSA). […]

[1] abbreviates: IDH1 R132C enzymatic inhibition, IC50 class.
The mark [2] stands for this setting: IDH1 R132H enzymatic inhibition, IC50 class.
Where [3] appears, read: enzymatic inhibition, IDH1 R132C.
Where [4] appears, read: enzymatic inhibition, IDH1 R132H.

Where only a bound is given, the exact number is not on record here.

Chain of IDH1 R132H (O75874 whole entry R132H): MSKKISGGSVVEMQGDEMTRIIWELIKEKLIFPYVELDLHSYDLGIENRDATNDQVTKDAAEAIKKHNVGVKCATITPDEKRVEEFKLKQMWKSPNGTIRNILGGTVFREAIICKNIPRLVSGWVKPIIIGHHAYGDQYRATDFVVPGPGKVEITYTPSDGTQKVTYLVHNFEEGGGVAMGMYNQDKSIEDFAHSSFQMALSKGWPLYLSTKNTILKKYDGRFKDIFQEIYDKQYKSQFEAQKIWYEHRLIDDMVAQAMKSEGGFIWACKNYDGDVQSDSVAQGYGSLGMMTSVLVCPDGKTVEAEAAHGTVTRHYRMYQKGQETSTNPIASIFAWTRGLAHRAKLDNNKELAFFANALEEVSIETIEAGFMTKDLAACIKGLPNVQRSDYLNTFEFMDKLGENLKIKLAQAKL
Chain of IDH1 R132C (O75874 whole entry R132C): as the sequence (O75874 whole entry R132H) above, with H132C counted along it

Broadly, the IC50 is the concentration that inhibits the measured activity by half. Read a low IC50 as higher potency. As to `CCc1cccc(CC)c1-n1c(C=C(C)C)c(C(=O)N2C[C@H]3CC[C@@H](C2)N3)cc(-c2nc(-c3ccc(C(F)(F)F)cc3)cs2)c1=O` [Compound 323], the IC50 at IDH1 R132C (setting [1]) and on IDH1 R132H (setting [2]) was under 300 nM throughout.

In the case of `CC(C)COc1ccccc1-n1c2c(cc(-c3nc(-c4ccc(Cl)cc4)cs3)c1=O)C(=O)CC(C)(C)C2` [Compound 256], the IC50 on IDH1 R132C (setting [1]) and against IDH1 R132H (setting [2]) was 300 to 1000 nM each time.

Turning to `CCc1ccc(C)cc1-n1c(C=C(C)C)c(C(=O)N2CCNCC2)cc(-c2nc(-c3ccc(Cl)cc3)cs2)c1=O` [Compound 656], the IC50 on IDH1 R132C (setting [1]) and on IDH1 R132H (setting [2]) was under 300 nM in each case.

Turning to `COc1ccc(OC)c(-n2c3c(cc(C(=O)NCc4ccc(Cl)cc4)c2=O)C(=O)CC(C)(C)C3)c1` [Compound 93], the IC50 at IDH1 R132C (setting [1]) and at IDH1 R132H (setting [2]) was 5000 to 20000 nM in each case.

As to `CCc1cccc(CC)c1-n1c(C(C)C)c(C(=O)NC[C@@H](C)O)cc(-c2nc(-c3ccc(Cl)cc3)cs2)c1=O` [Compound 101], the IC50 at IDH1 R132C (setting [1]) lay in the range of 300 to 1000 nM; against IDH1 R132H (setting [2]), 1000 to 5000 nM.

On to `CC1(C)CC(=O)c2cc(-c3nc(-c4ccncc4)cs3)c(=O)n(-c3ccccc3C(F)(F)F)c2C1` [Compound 255], for which the 50% inhibitory concentration (IC50) on IDH1 R132C (setting [1]) and at IDH1 R132H (setting [2]) was 1000 to 5000 nM in each case.

On to `O=C1CCCc2c1cc(-c1nc(-c3ccc(Cl)cc3)cs1)c(=O)n2-c1ccc(CO)cc1` [Compound 649], for which the IC50 on IDH1 R132C (setting [1]) and at IDH1 R132H (setting [2]) was over 20000 nM throughout.

For the molecule `CCOc1ncc(C)cc1-n1c(C=C(C)C)c(C(=O)N2CCNCC2)cc(-c2nc(-c3ccc(C(F)(F)F)cc3)cs2)c1=O` [Compound 587], the IC50 against IDH1 R132C (setting [3]) and against IDH1 R132H (setting [4]) was under 300 nM each time.

For the molecule `CC(C)Sc1ccccc1-n1c2c(cc(-c3nc(-c4ccc(Cl)cc4)cs3)c1=O)C(=O)CC(C)(C)C2` [Compound 51], the IC50 was 1000 to 5000 nM on IDH1 R132C (setting [1]) and over 20000 nM against IDH1 R132H (setting [2]).

`CC(C)=Cc1c(C(=O)N2CCNCC2)cc(-c2nc(-c3ccc(Cl)cc3)cs2)c(=O)n1-c1cc(C)ccc1Cl` [Compound 357]: the IC50 on IDH1 R132C (setting [1]) and against IDH1 R132H (setting [2]) was under 300 nM in each case.

Take `CCc1cccc(CC)c1-n1c(CC(C)C)c(C(=O)N2CCN[C@@H](C(=O)O)C2)cc(-c2nc(-c3ccc(Cl)cc3)cs2)c1=O` [Compound 102]: the values for the IC50 against IDH1 R132C (setting [1]) and against IDH1 R132H (setting [2]) were under 300 nM and 300 to 1000 nM, respectively.

As for `CCc1cccc(CC)c1-n1c(C(C)C)c(C(=O)N2CCNC(=O)C2)cc(-c2nc(-c3ccc(Cl)cc3)cs2)c1=O` [Compound 168], the IC50 against IDH1 R132C (setting [1]) and against IDH1 R132H (setting [2]) was 300 to 1000 nM each time.

As for `CC(C)=Cc1c(C(=O)N2CCNCC2)cc(-c2nc(-c3ccc(Cl)cc3)cs2)c(=O)n1-c1c(F)cccc1OC(C)C` [Compound 494], the IC50 at IDH1 R132C (setting [3]) and against IDH1 R132H (setting [4]) was under 300 nM in each case.

As to `CCc1cccc(CC)c1-n1c2c(cc(-c3nc(-c4ccc(C(F)(F)F)cc4)cs3)c1=O)C(=O)CC(C)(C)C2` [Compound 186], the IC50 on IDH1 R132C (setting [1]) is under 300 nM; on IDH1 R132H (setting [2]) it was 300 to 1000 nM.

As for `COc1ncc(Cl)cc1-n1c(C=C(C)C)c(C(=O)N2CCNCC2)cc(-c2nc(-c3ccc(Cl)cc3)cs2)c1=O` [Compound 490], the IC50 against IDH1 R132C (setting [3]) and against IDH1 R132H (setting [4]) was under 300 nM in each case.

Turning to `CCc1cccc(CC)c1-n1c(C(C)C)c(C(=O)N2CCN[C@@H](C(=O)O)C2)cc(-c2nc(-c3ccc(Cl)cc3)cs2)c1=O` [Compound 28], the IC50 against IDH1 R132C (setting [1]) and against IDH1 R132H (setting [2]) was under 300 nM throughout.

As for `CCc1cccc(CC)c1-n1c(CC(C)C)c(C(=O)N2CCNCC2)cc(-c2cccc(-c3ccc(Cl)cc3)n2)c1=O` [Compound 310], the concentration for half-maximal inhibition (IC50) on IDH1 R132C (setting [1]) and against IDH1 R132H (setting [2]) was 1000 to 5000 nM each time.

Regarding `COc1ccc(OC)c(-n2c(=O)c(-c3nc(-c4ccc(Cl)cc4)cs3)cc3c(OC)cncc32)c1` [Compound 289], the IC50 against IDH1 R132C (setting [1]) was 5000 to 20000 nM; against IDH1 R132H (setting [2]), over 20000 nM.

Turning to `CCc1cccc(F)c1-n1c(C=C(C)C)c(C(=O)N2CCNCC2)cc(-c2nc(-c3ccc(Cl)cc3)cs2)c1=O` [Compound 655], the IC50 at IDH1 R132C (setting [1]) and on IDH1 R132H (setting [2]) was under 300 nM throughout.

For `CCc1cccc(CC)c1-n1c(C=C(C)C)c(C(=O)N2CCCC(N)C2)cc(-c2nc(-c3ccc(Cl)cc3)cs2)c1=O` (centres unmarked) [Compound 629], the 50% inhibitory concentration (IC50) against IDH1 R132C (setting [1]) and at IDH1 R132H (setting [2]) was under 300 nM in each case.

For `COc1ccc(-n2c3c(cc(-c4nc(-c5ccc(Cl)cc5)cs4)c2=O)C(=O)CC(C)(C)C3)c(Cl)c1` [Compound 663], the IC50 is 1000 to 5000 nM against IDH1 R132C (setting [1]) and over 20000 nM at IDH1 R132H (setting [2]).

Consider `CCOc1ncc(F)cc1-n1c(C=C(C)C)c(C(=O)N2CCNCC2)cc(-c2nc(-c3ccc(C(F)F)nc3)cs2)c1=O` [Compound 520], for which the IC50 is 1000 to 5000 nM against IDH1 R132C (setting [3]) and under 300 nM on IDH1 R132H (setting [4]).

Values taken from patent US10703746B2, “Mutant IDH1 inhibitors useful for treating cancer” (THE UNITED STATES OF AMERICA, AS REPRESENTED BY THE …, priority 2014, dated 2020).
